Key:
[1] = target: Procathepsin L (Homo sapiens) (UniProt P07711); experiment: Binding affinity to Cathepsin L (unknown origin) expressed in Komagataella pastoris GS115 assessed as thermal stabilization by mesuring melting temperature by nanoDSF analysis
[2] = system: SARS-CoV-2; assay type: functional, Severe acute respiratory syndrome coronavirus 2, Omicron, Vero; conditions: dose 100 nM; time 24 hrs
[3] = system: SARS-CoV-2; experiment: Antiviral activity against SARS CoV-2 USA-WA1/2020 infected in african green monkey Vero 76 cells assessed as virus-induced cytopathic effect incubated for 5 days by neutral red uptake assay; assay type: functional, organism-based; conditions: Severe acute respiratory syndrome coronavirus 2, USA-WA1/2020, Vero 76, 120 h
[4] = Cytotoxicity against african green monkey Vero 76 cells assessed as reduction in cell viability incubated for 48 hrs by neutral red uptake assay; assay type: toxicity, cell-based; conditions: chlorocebus sabaeus

Procathepsin L (Homo sapiens), sequence (P07711 114-333 limits assumed): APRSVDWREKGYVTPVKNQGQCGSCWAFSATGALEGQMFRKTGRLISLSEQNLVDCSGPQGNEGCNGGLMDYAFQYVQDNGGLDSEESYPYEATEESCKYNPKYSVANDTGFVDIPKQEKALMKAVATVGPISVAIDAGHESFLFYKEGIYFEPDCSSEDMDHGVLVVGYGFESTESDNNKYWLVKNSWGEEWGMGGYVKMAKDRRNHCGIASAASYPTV

Row | SMILES | ΔTm [1] | Activity [2] | EC50 [3] | CC50 at 48 h [4]
1 | CN(C)C(=O)C(Cc1ccccc1)NC(=O)[C@H]1O[C@@H]1C(=O)NCCc1ccccn1 (relative stereo) | 12 °C | – | – | –
2 | CCCC(NC(=O)C(CC(C)C)NC(=O)OCc1ccccc1)C(=O)C(=O)NCc1ccccn1 (centres undefined) | – | 50% | < 1 µM | > 50 µM

From ChEMBL document CHEMBL5543154, “Structural Elucidation and Antiviral Activity of Covalent Cathepsin L Inhibitors” (J Med Chem, 2024)
